Where two headings read alike, the source gives them in different places.
What was measured:
[1] = system: gastric cancer cell line Hs746T; test: Cancer cell proliferation inhibitory activity evaluation 2 (CCK-8), Hs746T; assay type: cell-based; details: Homo sapiens
Method: (§1) In order to identify whether the compounds have anticancer activity, the acute myeloid leukemia cell line U937, the acute lymphoblastic leukemia cell line Jurkat, the gastric cancer cell lines AGS, […], and the human lung cancer cell line A549 were used. The cell line was cultured using RPMI-1640 medium (U937, Jurkat, AGS, A549) or DMEM (Hs746T) medium containing 10% fetal bovine serum. Welgene products were used as the medium, and hyclone products were used for fetal bovine serum, and 1% of antibiotics for cell culture from Gibco were used as the culture medium.

MLK1 = MLK1 (Homo sapiens (Human), UniProt P80192); test: Evaluation of inhibitory activity of enzyme units, MLK1 ([γ-33P]-ATP filter assay); assay type: biochemical
[2] = system: acute myeloid leukemia cell line U937; test: Cancer cell proliferation inhibitory activity evaluation 2 (CCK-8), U937; assay type: cell-based; details: Homo sapiens, read-out: Cancer cell proliferation inhibitory activity U937
Method: as §1

[3] = system: human lung cancer cell line A549; test: Cancer cell proliferation inhibitory activity evaluation 2 (CCK-8), A549; assay type: cell-based
Method: as §1

[4] = system: gastric cancer cell line AGS; test: Cancer cell proliferation inhibitory activity evaluation 2 (CCK-8), AGS; assay type: cell-based; details: Homo sapiens, read-out: Cancer cell proliferation inhibitory activity AGS
Method: as §1

MLK3 = MLK3 (Homo sapiens (Human), UniProt Q16584); test: Evaluation of inhibitory activity of enzyme units, MLK3 ([γ-33P]-ATP filter assay); details: read-out: IC50(nM) MLK3
[5] = system: acute lymphoblastic leukemia cell line Jurkat; test: Cancer cell proliferation inhibitory activity evaluation 2 (CCK-8), Jurkat; assay type: cell-based; details: Homo sapiens
Method: as §1

[6] = 72 h, read-out: Cancer cell proliferation inhibitory activity Hs746T
[7] = A549, 72 h, read-out: Cancer cell proliferation inhibitory activity A549
[8] = 72 h, read-out: Cancer cell proliferation inhibitory activity Jurkat
[9] = 10 μM, 72 hours, CCK-8, read-out: Cancer cell proliferation inhibitory activity Hs746T
[10] = U-937, 10 μM, 72 hours, CCK-8 (Table 3)
[11] = A549, 10 μM, 72 hours, CCK-8, read-out: Cancer cell proliferation inhibitory activity A549
[12] = 10 μM, 72 hours, CCK-8, read-out: Cancer cell proliferation inhibitory activity Jurkat

Chain of MLK1 (P80192 whole entry, looked up): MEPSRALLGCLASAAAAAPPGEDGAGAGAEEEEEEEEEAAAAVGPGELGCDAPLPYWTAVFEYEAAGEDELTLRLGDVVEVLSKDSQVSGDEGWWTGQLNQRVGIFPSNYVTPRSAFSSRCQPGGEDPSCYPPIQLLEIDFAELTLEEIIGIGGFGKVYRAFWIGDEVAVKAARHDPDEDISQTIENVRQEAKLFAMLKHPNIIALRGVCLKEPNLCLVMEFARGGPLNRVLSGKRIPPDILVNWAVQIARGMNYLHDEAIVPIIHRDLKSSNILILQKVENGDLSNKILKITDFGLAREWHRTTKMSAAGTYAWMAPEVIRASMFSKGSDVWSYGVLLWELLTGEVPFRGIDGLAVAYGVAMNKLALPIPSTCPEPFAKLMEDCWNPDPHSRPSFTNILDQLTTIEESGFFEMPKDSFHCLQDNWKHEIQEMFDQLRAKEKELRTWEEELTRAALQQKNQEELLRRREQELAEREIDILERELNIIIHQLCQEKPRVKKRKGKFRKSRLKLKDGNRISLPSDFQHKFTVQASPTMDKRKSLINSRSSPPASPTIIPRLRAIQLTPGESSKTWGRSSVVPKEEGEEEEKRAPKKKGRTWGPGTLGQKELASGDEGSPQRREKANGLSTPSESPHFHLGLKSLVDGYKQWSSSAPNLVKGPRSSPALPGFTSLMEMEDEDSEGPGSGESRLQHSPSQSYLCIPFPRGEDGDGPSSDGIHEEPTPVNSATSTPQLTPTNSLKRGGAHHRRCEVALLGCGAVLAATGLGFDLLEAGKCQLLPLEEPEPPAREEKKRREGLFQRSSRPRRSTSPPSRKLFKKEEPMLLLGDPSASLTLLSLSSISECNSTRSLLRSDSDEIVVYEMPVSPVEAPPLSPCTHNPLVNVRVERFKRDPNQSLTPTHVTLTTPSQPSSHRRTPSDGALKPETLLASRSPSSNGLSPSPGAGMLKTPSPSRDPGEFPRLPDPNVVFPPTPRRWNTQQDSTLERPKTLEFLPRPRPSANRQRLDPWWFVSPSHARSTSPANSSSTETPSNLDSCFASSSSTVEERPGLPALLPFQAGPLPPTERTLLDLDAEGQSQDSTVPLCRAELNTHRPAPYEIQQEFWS
Chain of MLK3 (Q16584 whole entry, looked up): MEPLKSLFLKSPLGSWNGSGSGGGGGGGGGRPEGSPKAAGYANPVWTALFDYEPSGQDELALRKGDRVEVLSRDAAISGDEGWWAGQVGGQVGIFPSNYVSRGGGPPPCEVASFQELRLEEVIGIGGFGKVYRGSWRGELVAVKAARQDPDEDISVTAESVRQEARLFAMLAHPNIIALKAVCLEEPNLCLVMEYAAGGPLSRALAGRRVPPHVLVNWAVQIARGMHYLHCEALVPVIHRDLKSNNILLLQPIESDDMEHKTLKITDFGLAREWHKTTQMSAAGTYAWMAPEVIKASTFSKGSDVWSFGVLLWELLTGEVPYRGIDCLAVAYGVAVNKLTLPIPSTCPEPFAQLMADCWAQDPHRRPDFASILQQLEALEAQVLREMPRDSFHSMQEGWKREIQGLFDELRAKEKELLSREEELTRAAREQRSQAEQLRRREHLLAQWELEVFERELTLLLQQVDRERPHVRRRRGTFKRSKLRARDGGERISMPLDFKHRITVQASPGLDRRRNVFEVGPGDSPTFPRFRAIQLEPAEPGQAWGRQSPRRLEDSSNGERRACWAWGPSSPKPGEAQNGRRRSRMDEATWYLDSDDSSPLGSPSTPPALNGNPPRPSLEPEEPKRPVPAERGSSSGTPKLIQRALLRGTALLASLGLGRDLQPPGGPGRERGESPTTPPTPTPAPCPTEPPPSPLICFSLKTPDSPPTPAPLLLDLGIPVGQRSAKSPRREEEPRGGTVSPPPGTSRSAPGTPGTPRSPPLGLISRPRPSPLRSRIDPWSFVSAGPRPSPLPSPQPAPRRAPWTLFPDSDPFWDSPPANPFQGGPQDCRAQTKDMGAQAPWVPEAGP

With `CCS(=O)(=O)N1CC[C@H](Nc2c(Br)cnc3nc(-c4cc(C)n(-c5ccc(C(=O)N6CCN(C)CC6)cc5)c4C)[nH]c23)C1` [Example 67, (S)-(4-(3-(6-bromo-7-((1-(ethylsulfonyl)pyrrolidine-3-yl)amino)-1H-imidazo[4,5-b]pyridine-2-yl)-2,5-dimethyl-1H-pyrrol-1-yl)phenyl) (4-methylpiperazine-1-yl) methanone] the inhibition at 10 µM [1, 6] was 10 to 50%, the IC50 (MLK1) was 32 nM and the inhibition at 10 µM ([2]; U-937, 72 h) was > 50%. The inhibition at 10 µM [3, 7] was 10 to 50%, the inhibition at 10 µM ([4]; 72 h) was > 50% and the IC50 (MLK3) was 19 nM. The inhibition at 10 µM [5, 8] was > 50%.

`CCS(=O)(=O)N1CC[C@H](Nc2c(Br)cnc3nc(-c4cc(C)n(-c5cccc(C(=O)N6CCN(C)CC6)c5)c4C)[nH]c23)C1` [Example 68] was tested, and the inhibition at 10 µM [1, 6] was > 50%, the IC50 (MLK1) was 25 nM and the inhibition at 10 µM ([2]; U-937, 72 h) was > 50%. For the same molecule, the inhibition at 10 µM [3, 7] was > 50%, the inhibition at 10 µM ([4]; 72 h) was > 50% and the IC50 (MLK3) was 16 nM. For the same molecule, the inhibition at 10 µM [5, 8] was > 50%.

With `CCS(=O)(=O)N1CC[C@H](Nc2c(Br)cnc3[nH]c(-c4cc(C)n(-c5cccc(C(=O)NCCN6CCN(C)CC6)c5)c4C)nc23)C1` [Example 71, (S)-3-(3-(6-bromo-7-((1-(ethylsulfonyl)pyrrolidine-3-yl)amino)-3H-imidazo[4,5-b]pyridine-2-yl)-2,5-dimethyl-1H-pyrrol-1-yl)-N-(2-(4-methylpiperazine-1-yl)ethyl)benzamide] the inhibition at 10 µM [1, 6] was > 50%, the IC50 (MLK1) was 36 nM and the inhibition at 10 µM ([2]; U-937, 72 h) was 10 to 50%. For the same molecule, the inhibition at 10 µM [3, 7] was < 10%, the inhibition at 10 µM ([4]; 72 h) was > 50% and the IC50 (MLK3) was 26 nM. For the same molecule, the inhibition at 10 µM [5, 8] was > 50%.

With `CCS(=O)(=O)N1CC[C@H](Nc2c(Br)cnc3nc(-c4cc(C)n(-c5cc(C(=O)N6CCOCC6)ccc5C)c4C)[nH]c23)C1` [Example 91, (3-(3-(6-bromo-7-(((S)-1-(ethylsulfonyl)pyrrolidine-3-yl)amino)-1H-imidazo[4,5-b]pyridine-2-yl)-2,5-dimethyl-1H-pyrrol-1-yl)-4-methylphenyl) (morpholino) methanone] the inhibition at 10 µM [1, 6] was > 50%, the IC50 (MLK1) was 19 nM and the inhibition at 10 µM ([2]; U-937, 72 h) was > 50%. For the same molecule, the inhibition at 10 µM [3, 7] was > 50%, the inhibition at 10 µM ([4]; 72 h) was > 50% and the IC50 (MLK3) was 25 nM. For the same molecule, the inhibition at 10 µM [5, 8] was > 50%.

In the case of `CCS(=O)(=O)N1CC[C@H](Nc2c(Br)cnc3[nH]c(-c4cc(C)n(-c5ccc(C(=O)NCCN6CCN(C)CC6)cc5)c4C)nc23)C1` [Example 72, (S)-4-(3-(6-bromo-7-((1-(ethylsulfonyl)pyrrolidine-3-yl)amino)-3H-imidazo[4,5-b]pyridine-2-yl)-2,5-dimethyl-1H-pyrrol-1-yl)-N-(2-(4-methylpiperazine-1-yl)ethyl)benzamide], the inhibition at 10 µM [1, 6] is reported as > 50%, the IC50 (MLK1) is reported as 25 nM and the inhibition at 10 µM ([2]; U-937, 72 h) is reported as > 50%. For the same molecule, the inhibition at 10 µM [3, 7] was 10 to 50%, the inhibition at 10 µM ([4]; 72 h) was > 50% and the IC50 (MLK3) was 15 nM. For the same molecule, the inhibition at 10 µM [5, 8] was > 50%.

In the case of `CCS(=O)(=O)N1CC[C@H](Nc2c(Br)cnc3nc(-c4cc(C)n(-c5cc(NC(=O)CN6CCOCC6)ccc5C)c4C)[nH]c23)C1` [Example 78, N-(3-(3-(6-bromo-7-(((S)-1-(ethylsulfonyl)pyrrolidine-3-yl)amino)-1H-imidazo[4,5-b]pyridine-2-yl)-2,5-dimethyl-1H-pyrrol-1-yl)-4-methylphenyl)-2-morpholinoacetamide], the inhibition at 10 µM [1, 6] is reported as > 50%, the IC50 (MLK1) is reported as 25 nM and the inhibition at 10 µM ([2]; U-937, 72 h) is reported as > 50%. The inhibition at 10 µM [3, 7] was > 50%, the inhibition at 10 µM ([4]; 72 h) was > 50% and the IC50 (MLK3) was 47 nM. The inhibition at 10 µM [5, 8] was > 50%.

`CCS(=O)(=O)N1CC[C@H](Nc2c(Br)cnc3nc(-c4cc(C)n(-c5cc(NC(=O)CN(C)C)ccc5C)c4C)[nH]c23)C1` [Example 74, N-(3-(3-(6-bromo-7-(((S)-1-(ethylsulfonyl)pyrrolidine-3-yl)amino)-1H-imidazo[4,5-b]pyridine-2-yl)-2,5-dimethyl-1H-pyrrol-1-yl)-4-methylphenyl)-2-(dimethylamino) acetamide] was tested, and the inhibition at 10 µM [1, 9] was > 50%, the IC50 (MLK1) was 43 nM and the inhibition at 10 µM [2, 10] was > 50%. For the same molecule, the inhibition at 10 µM [3, 11] was > 50%, the inhibition at 10 µM ([4]; 10 μM, 72 hours, CCK-8) was > 50% and the IC50 (MLK3) was 46 nM. The inhibition at 10 µM [5, 12] was > 50%.

With `CCS(=O)(=O)N1CC[C@H](Nc2c(Br)cnc3nc(-c4cc(C)n(-c5cccc(NC(=O)CCN(C)C)c5C)c4C)[nH]c23)C1` [Example 79] the inhibition at 10 µM [1, 6] was > 50%, the IC50 (MLK1) was 35 nM and the inhibition at 10 µM ([2]; U-937, 72 h) was > 50%. The inhibition at 10 µM [3, 7] was > 50%, the inhibition at 10 µM ([4]; 72 h) was > 50% and the IC50 (MLK3) was 7 nM. The inhibition at 10 µM [5, 8] was > 50%.

In the case of `CCS(=O)(=O)N1CC[C@H](Nc2c(Br)cnc3[nH]c(-c4cc(C)n(-c5cccc(C(=O)N(C)CCN(C)C)c5)c4C)nc23)C1` [Example 61, (S)-3-(3-(6-bromo-7-((1-(ethylsulfonyl)pyrrolidine-3-yl)amino)-3H-imidazo[4,5-b]pyridine-2-yl)-2,5-dimethyl-1H-pyrrol-1-yl)-N-(2-(dimethylamino)ethyl)-N-methylbenzamide], the inhibition at 10 µM [1, 6] is reported as > 50%, the IC50 (MLK1) is reported as 19 nM and the inhibition at 10 µM ([2]; U-937, 72 h) is reported as > 50%. The inhibition at 10 µM [3, 7] was > 50%, the inhibition at 10 µM ([4]; 72 h) was > 50% and the IC50 (MLK3) was 30 nM. The inhibition at 10 µM [5, 8] was > 50%.

`CCS(=O)(=O)N1CC[C@H](Nc2c(Br)cnc3nc(-c4cc(C)n(-c5cccc(NC(=O)CN6CCOCC6)c5)c4C)[nH]c23)C1` [Example 66, (S)—N-(3-(3-(6-bromo-7-((1-(ethylsulfonyl)pyrrolidine-3-yl)amino)-1H-imidazo[4,5-b]pyridine-2-yl)-2,5-dimethyl-1H-pyrrol-1-yl)phenyl)-2-morpholinoacetamide] was tested, and the inhibition at 10 µM [1, 6] was > 50%, the IC50 (MLK1) was 22 nM and the inhibition at 10 µM ([2]; U-937, 72 h) was 10 to 50%. The inhibition at 10 µM [3, 7] was 10 to 50%, the inhibition at 10 µM ([4]; 72 h) was > 50% and the IC50 (MLK3) was 17 nM. For the same molecule, the inhibition at 10 µM [5, 8] was > 50%.

For `CCS(=O)(=O)N1CC[C@H](Nc2c(Br)cnc3nc(-c4cc(C)n(-c5cccc(C(=O)N6CCOCC6)c5C)c4C)[nH]c23)C1` [Example 83, (3-(3-(6-bromo-7-(((S)-1-(ethylsulfonyl)pyrrolidine-3-yl)amino)-1H-imidazo[4,5-b]pyridine-2-yl)-2,5-dimethyl-1H-pyrrol-1-yl)-2-methylphenyl) (morpholino) methanone], the inhibition at 10 µM [1, 6] was > 50%, the IC50 (MLK1) was 22 nM and the inhibition at 10 µM ([2]; U-937, 72 h) was > 50%. The inhibition at 10 µM [3, 7] was 10 to 50%, the inhibition at 10 µM ([4]; 72 h) was > 50% and the IC50 (MLK3) was 12 nM. The inhibition at 10 µM [5, 8] was > 50%.

`CCS(=O)(=O)N1CC[C@H](Nc2c(Br)cnc3[nH]c(-c4cc(C)n(-c5ccc(C(=O)NCCN6CCOCC6)cc5)c4C)nc23)C1` [Example 70, (S)-4-(3-(6-bromo-7-((1-(ethylsulfonyl)pyrrolidine-3-yl)amino)-3H-imidazo[4,5-b]pyridine-2-yl)-2,5-dimethyl-1H-pyrrol-1-yl)-N-(2-morpholinoethyl)benzamide] was tested, and the inhibition at 10 µM [1, 9] was 10 to 50%, the IC50 (MLK1) was 36 nM and the inhibition at 10 µM [2, 10] was > 50%. The inhibition at 10 µM [3, 11] was 10 to 50%, the inhibition at 10 µM ([4]; 10 μM, 72 hours, CCK-8) was > 50% and the IC50 (MLK3) was 18 nM. The inhibition at 10 µM [5, 12] was > 50%.

For `CCS(=O)(=O)N1CC[C@H](Nc2c(Br)cnc3nc(-c4cc(C)n(-c5ccc(NC(=O)CN6CCOCC6)cc5C)c4C)[nH]c23)C1` [Example 77, N—(4-(3-(6-bromo-7-(((S)-1-(ethylsulfony)pyrolidine-3-yl)amino)-1H-imidazo[4,5-b]pyridine-2-yl)-2,5-dimethyl-1H-pyrrol-1-yl)-3-methylphenyl)-2-morpholinoacetamide], the inhibition at 10 µM [1, 9] was 10 to 50%, the IC50 (MLK1) was 19 nM and the inhibition at 10 µM [2, 10] was > 50%. The inhibition at 10 µM [3, 11] was 10 to 50%, the inhibition at 10 µM ([4]; 10 μM, 72 hours, CCK-8) was > 50% and the IC50 (MLK3) was 7 nM. For the same molecule, the inhibition at 10 µM [5, 12] was > 50%.

For `Cc1ccc(NC(=O)CN2CCN(C)CC2)cc1-n1c(C)cc(-c2nc3ncc(Br)c(Nc4cccc(S(N)(=O)=O)c4)c3[nH]2)c1C` [Example 89, N-(3-(3-(6-bromo-7-((3-sulfamoylphenyl)amino)-1H-imidazo[4,5-b]pyridine-2-yl)-2,5-dimethyl-1H-pyrrol-1-yl)-4-methylphenyl)-2-(4-methylpiperazine-1-yl) acetamide], the inhibition at 10 µM [1, 9] was 10 to 50%, the IC50 (MLK1) was 169 nM and the inhibition at 10 µM [2, 10] was < 10%. The inhibition at 10 µM [3, 11] was < 10%, the inhibition at 10 µM ([4]; 10 μM, 72 hours, CCK-8) was 10 to 50% and the IC50 (MLK3) was 81 nM. For the same molecule, the inhibition at 10 µM [5, 12] was 10 to 50%.

For `CCS(=O)(=O)N1CC[C@H](Nc2c(Br)cnc3[nH]c(-c4cc(C)n(-c5cccc(C(=O)NCCN6CCOCC6)c5)c4C)nc23)C1` [Example 69, (S)-3-(3-(6-bromo-7-((1-(ethylsulfonyl)pyrrolidine-3-yl)amino)-3H-imidazo[4,5-b]pyridine-2-yl)-2,5-dimethyl-1H-pyrrol-1-yl)-N-(2-morpholinoethyl)benzamide], the inhibition at 10 µM [1, 6] was 10 to 50%, the IC50 (MLK1) was 22 nM and the inhibition at 10 µM ([2]; U-937, 72 h) was > 50%. The inhibition at 10 µM [3, 7] was 10 to 50%, the inhibition at 10 µM ([4]; 72 h) was > 50% and the IC50 (MLK3) was 13 nM. The inhibition at 10 µM [5, 8] was > 50%.
